The values below come from US20090312390A1, “INHIBITORS OF GLYCOGEN SYNTHASE KINASE-3 (GSK-3) FOR TREATING GLAUCOMA” (ALCON, INC., priority 2001, published 2009).

The test system of one test is GSK-3. Particulars: literature report; cited from earlier work.
Test [1] concerns central and peripheral neurons grown in culture. Particulars: death induced by reduced phosphatidyl inositol pathway activity (Cross et al.); cited from earlier work.
In test [2] the test system is perfused human ocular anterior segments. Kind of test: Outflow rate in perfused human ocular anterior segments maintained in culture. The procedure:
(§1) Recently it has been discovered that frizzled related protein (FRP) is differentially expressed in a number of glaucomatous trabecular meshwork cell lines. […] The decreased flow rate in the cultured anterior segments models an increase in resistance to outflow (increase in intraocular pressure) in intact eye.
Human ocular anterior segments are perfused with Dulbecco's modified Eagle's medium (DMEM) at a constant pressure of 11 mm Hg. The outflow rate of each eye is measured by weighing its reservoir at specified periods. After a stabilization period, the eyes are perfused with either vehicle or FRP-1 (10 μg/ml) and their outflow rates monitored for 2-5 days. […] Inhibitor is added and the anterior segment is perfused for an additional 2-4 days. Outflow rate is measured by weighing its reservoir at specific periods.

For a further test, the system named is β-catenin. Kind of test: β-catenin protein levels in ciliary body and trabecular meshwork of perfused anterior segments. The arrangement: species or system human. Particulars: ciliary body and trabecular meshwork (TM) after FRP-1 perfusion.
Source text: as §1

Turning to `CN(C)CCCn1cc(C2=C(c3c[nH]c4ccccc34)C(=O)NC2=O)c2ccccc21` [GF1092], the GSK-3 inhibition entry in the test on GSK-3 is recorded as “inhibitors of GSK-3”.
With `Cn1cc(C2=C(c3cn(CCCSC(=N)N)c4ccccc34)C(=O)NC2=O)c2ccccc21` [Ro 31-8220], the GSK-3 inhibition result in the test with GSK-3 was “inhibitors of GSK-3”.
Take `Cn1cc(C2=C(c3ccc(Cl)cc3Cl)C(=O)NC2=O)c2ccccc21` [SB216763]: the “protection of neurons from death” value in test [1] is “protected both central and peripheral neurons”.
In the case of `O=C1NC(=O)C(c2ccccc2[N+](=O)[O-])=C1Nc1ccc(O)c(Cl)c1` [SB-415286], the “protection of neurons from death” value in test [1] is “protected both central and peripheral neurons”.

B1: FRP-1: frizzled related protein, secreted protein that antagonizes the Wnt signaling pathway (protein, UniProt Q8N474 32-314, looked up)
Secreted frizzled-related …: SEYDYVSFQSDIGPYQSGRFYTKPPQCVDIPADLRLCHNVGYKKMVLPNLLEHETMAEVKQQASSWVPLLNKNCHAGTQVFLCSLFAPVCLDRPIYPCRWLCEAVRDSCEPVMQFFGFYWPEMLKCDKFPEGDVCIAMTPPNATEASKPQGTTVCPPCDNELKSEAIIEHLCASEFALRMKIKEVKKENGDKKIVPKKKKPLKLGPIKKKDLKKLVLYLKNGADCPCHQLDNLSHHFLIMGRKVKSQYLLTAIHKWDKKNKEFKNFMKKMKNHECPTFQSVFK
In the case of B1, the aqueous humor outflow result in test [2] (FRP-1 10 μg/ml, constant pressure 11 mm Hg, outflow monitored 2-5 days) is on record as “decrease in aqueous humor outflow”. Also, the flowrate result in test [2] (perfusion of FRP-1 through perfused human ocular anterior segments in culture) is “decrease in flowrate”. For the same molecule, the β-catenin protein levels entry with β-catenin is recorded as “decrease in β-catenin protein levels”.
